This passage reports IC50 results from ChEMBL document CHEMBL3124930, “Synthesis of novel 5-(3-alkylquinolin-2-yl)-3-aryl isoxazole derivatives and their cytotoxic activity” (Bioorg Med Chem Lett, 2014).

Holding throughout (assay type): functional, cell-based
In assay [1] the test system is COLO 205. Nature of the assay: Cytotoxicity against human COLO205 cells assessed as growth inhibition after 24 hrs by MTT assay. To be noted: COLO 205, 24 h. For orientation: Tetrazolium dyes change colour on reduction, which living cells bring about.
The subject of assay [2] is A549. Nature of the assay: Cytotoxicity against human A549 cells assessed as growth inhibition after 24 hrs by MTT assay. As to conditions: A549, 24 h.
The test system of assay [3] is PC-3. Briefly: Cytotoxicity against human PC3 cells assessed as growth inhibition after 24 hrs by MTT assay. To be noted: PC-3, 24 h.
In assay [4] the test system is MDA-MB-231. Nature of the assay: Cytotoxicity against human MDA-MB-231 cells assessed as growth inhibition after 24 hrs by MTT assay. As to conditions: MDA-MB-231, 24 h.

Broadly, the IC50 is the concentration that gives 50% inhibition.

Some results are limits rather than exact numbers.

On to `CCc1cc2ccccc2nc1-c1cc(-c2ccccc2)no1`, for which the IC50 in assay [1], in assay [2], in assay [3] and in assay [4] was over 100 µM each time.
Consider `CCCCc1cc2ccccc2nc1-c1cc(-c2ccccc2)no1`, for which the IC50 in assay [1], in assay [2], in assay [3] and in assay [4] was over 100 µM throughout.
With `FC(F)(F)c1ccc(-c2cc(/C=N/c3ccccc3)on2)cc1`, the IC50 in assay [1] was 41.3 µM; in assay [2] it was 38.9 µM; in assay [3] it was 35.7 µM; in assay [4] it was 37.4 µM.
In the case of `CCCc1cc2ccccc2nc1-c1cc(-c2ccc(C(F)(F)F)cc2)no1`, the IC50 in assay [1] stood at 42.2 µM; in assay [2] it was 43.9 µM; in assay [3], 33.8 µM; in assay [4], 36.5 µM.
Regarding `CCCCCc1cc2ccccc2nc1-c1cc(-c2ccccc2)no1`, the IC50 in assay [1] was over 100 µM; in assay [2] it was 92.3 µM; in assay [3] it was over 100 µM; in assay [4] it was over 100 µM.
With `CCc1cc2ccccc2nc1-c1cc(-c2ccc(F)cc2)no1`, the IC50 in assay [1], in assay [2], in assay [3] and in assay [4] was over 100 µM throughout.
In the case of `Fc1ccc(-c2cc(/C=N/c3ccccc3)on2)cc1`, the IC50 in assay [1] is 33.1 µM; in assay [2], 34.5 µM; in assay [3], 36.5 µM; in assay [4], 41.2 µM.
Take `CCCCc1cc2ccccc2nc1-c1cc(-c2ccc(C(F)(F)F)cc2)no1`: the IC50 is 11.9 µM in assay [1], 9.4 µM in assay [2], 10.8 µM in assay [3] and 10.4 µM in assay [4].
The like results for `CCCc1cc2ccccc2nc1-c1cc(-c2ccc(F)cc2)no1` were, in that order, 50.3 µM, 51.3 µM, 42.2 µM and 48.4 µM.
On to `CCCc1cc2ccccc2nc1-c1cc(-c2ccc(C)cc2)no1`, for which the IC50 in assay [1], in assay [2], in assay [3] and in assay [4] was over 100 µM in each case.
`CCc1cc2ccccc2nc1-c1cc(-c2ccc(C)cc2)no1`: the IC50 in assay [1], in assay [2], in assay [3] and in assay [4] was over 100 µM each time.
As to `Cc1ccc(-c2cc(/C=N/c3ccccc3)on2)cc1`, the IC50 in assay [1] amounted to 28.9 µM; in assay [2] it was 32 µM; in assay [3] it was 31.6 µM; in assay [4], 29.4 µM.
Regarding `CCCCCc1cc2ccccc2nc1-c1cc(-c2ccc(C(F)(F)F)cc2)no1`, the IC50 was 24.5 µM in assay [1], 28.3 µM in assay [2], 30.2 µM in assay [3] and 22.1 µM in assay [4].
As for `CCCc1cc2ccccc2nc1-c1cc(-c2ccccc2)no1`, the IC50 came out at 48.9 µM in assay [1], 52.5 µM in assay [2], 51.3 µM in assay [3] and 47.2 µM in assay [4].
Take `CCCCc1cc2ccccc2nc1-c1cc(-c2ccc(C)cc2)no1`: the IC50 in assay [1], in assay [2], in assay [3] and in assay [4] was over 100 µM in each case.
Turning to `CCc1cc2ccccc2nc1-c1cc(-c2ccc(C(F)(F)F)cc2)no1`, the IC50 in assay [1], in assay [2], in assay [3] and in assay [4] was over 100 µM throughout.
As to `CCCCCc1cc2ccccc2nc1-c1cc(-c2ccc(C)cc2)no1`, the IC50 in assay [1], in assay [2], in assay [3] and in assay [4] was over 100 µM each time.
Take `CCCCc1cc2ccccc2nc1-c1cc(-c2ccc(F)cc2)no1`: the IC50 in assay [1] was 25.3 µM; in assay [2] it was 27.5 µM; in assay [3], 26.3 µM; in assay [4], 24.2 µM.
For the compound `C(=N\c1ccccc1)/c1cc(-c2ccccc2)no1`, the IC50 in assay [1] is 89.1 µM; in assay [2], 48.1 µM; in assay [3] it was over 100 µM; in assay [4] it was over 100 µM.
`COc1cccc2c1C(=O)c1c(O)c3c(c(O)c1C2=O)C[C@@](O)(C(=O)CO)C[C@@H]3O[C@H]1C[C@H](N)[C@H](O)[C@H](C)O1` [DOXORUBICIN]: the results for the IC50 in assay [1], in assay [3] and in assay [4] were 0.7 µM, 0.6 µM and 0.8 µM, respectively.
